Test results published in patent publication US9433580B2 (priority 2011, dated 2016).

System: Pseudomonas aeruginosa
Assay: Burn wound infection model (mouse superficial skin model, thermal injury), log reduction of Pseudomonas aeruginosa
Type: in vivo, Swiss albino mice
Conditions: orally 25 mg/kg body weight, day 6
Protocol: Swiss albino mice were put into six groups and their backs were shaven. Thermal injury was induced in the shaven area by applying a heated brass rod on the back of the animals for 15 seconds to 20 seconds. For establishment of a topical infection, an inoculum containing approximately 2×10^5 bacteria (Pseudomonas aeruginosa) was injected subcutaneously (100 μL) on the sites of the burns. One hour post infection, the mice were treated using 100 mg of cream formulations of different drug concentrations. In case of all the cream formulations, 100 mg cream was applied topically twice daily for 5 days. One of the groups of mice was given Levofloxacin orally at 25 mg/kg body weight as a reference standard.

C[C@H]1COc2c(N3CCN(C)CC3)c(F)cc3c(=O)c(C(=O)O)cn1c23 [Levofloxacin]
Log reduction of microbial count: 5.53 log10
